Assay results taken from US20230151034A1 (COCRYSTAL PHARMA, INC., priority 2020, published 2023).

Tests used:
[1] = molecular target: Norwalk GGI.1 Norovirus protease (Norovirus, UniProt Q83883); assay: Noro-Norwalk FRET protease assay (Norwalk GGI.1); format: biochemical, Norwalk virus; conditions: Table C; FRET protease assay; read-out: Norwalk GGI.1 IC50
Procedure, shortened: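 IC50 values derive from FRET fluorescence after protease cleavage of quenched peptide (Edans-DFHLQ/GP-Dabcyl or 5-FAM/TAMRA). For Norwalk, 10 μM substrate and 1-7 μM enzyme ran 90 min at 37° C in pH 8 HEPES buffer, compounds 3-fold from 200 μM to 10.2 nM, read 473/519 nm.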

SARS2 protease = SARS2 protease (Severe acute respiratory syndrome coronavirus 2, UniProt P0DTD1); assay: SARS-CoV-2 protease inhibition assay (SARS2 FRET protease assay); format: biochemical; conditions: Table E; SARS-CoV-2 protease inhibition; read-out: IC50
Procedure, shortened: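 SARS-CoV-2 protease (25 nM) was incubated for 30 min at 30 °C with 1.3 μM quenched 5-FAM/TAMRA peptide substrate and compound (3-fold dilutions, 20 μM–1.0 nM). The buffer was 20 mM HEPES-Na pH 7, 120 mM NaCl, 0.4 mM EDTA, 0.01% Triton, 5% glycerol and 4 mM DTT. Fluorescence was read at ex 473 and em 519 nm, and IC50 was derived.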

[2] = molecular target: HuNV GGII.4 Norovirus protease (Norovirus GII.4 (human norovirus genogroup II genotype 4), UniProt P54634); assay: Norovirus protease FRET assay (HuNV GGII.4); format: biochemical; conditions: Table C; FRET protease assay; read-out: HuNV GGII.4 IC50
HuNV GGII.4 Norovirus protease, sequence (P54634 1009-1189): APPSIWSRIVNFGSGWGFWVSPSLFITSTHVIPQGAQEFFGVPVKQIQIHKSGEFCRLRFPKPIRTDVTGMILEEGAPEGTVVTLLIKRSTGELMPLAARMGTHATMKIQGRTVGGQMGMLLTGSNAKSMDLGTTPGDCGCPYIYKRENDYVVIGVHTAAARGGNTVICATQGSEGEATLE

Norwalk GGI.1 Norovirus protease, sequence (Q83883 1101-1281): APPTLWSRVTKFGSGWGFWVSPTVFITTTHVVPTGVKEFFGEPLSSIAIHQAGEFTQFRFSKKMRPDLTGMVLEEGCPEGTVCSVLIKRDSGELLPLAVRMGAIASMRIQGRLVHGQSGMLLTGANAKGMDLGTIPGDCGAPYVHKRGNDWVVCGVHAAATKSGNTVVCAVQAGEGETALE

Compound: CON(C)C(=O)[C@H](CCC(=O)N(C)CCc1ccccc1Cl)NC(=O)[C@H](CC1CCCCC1)NC(=O)OCc1cccc(Cl)c1 (stereo in doubt) [Compound A39, 3-Chlorobenzyl ((S)-1-(((S)-5-((2-chlorophenethyl)(methyl)amino)-1-(methoxy(methyl)amino)-1,5-dioxopentan-2-yl)amino)-3-cyclohexyl-1-oxopropan-2-yl)carbamate]
- IC50 [1]: 119 µM
- IC50 (SARS2 protease): 5.3 µM
- IC50 [2]: 100 µM

Compound: CN(C(=O)CC[C@@H](C=O)NC(=O)[C@H](CC1CCCCC1)NC(=O)OCc1cccc(Cl)c1)c1ccccc1 [Compound A19, 3-Chlorobenzyl ((S)-3-cyclohexyl-1-(((S)-5-(methyl (phenyl)amino)-1,5-dioxopentan-2-yl)amino)-1-oxopropan-2-yl) carbamate]
- IC50 [1]: 1 µM
- IC50 (SARS2 protease): 40.3 µM
- IC50 [2]: 3.3 µM

Compound: CN(CCc1ccc(Cl)cc1)C(=O)CC[C@@H](C=O)NC(=O)[C@H](CC1CCCCC1)NC(=O)OCc1cccc(Cl)c1 (stereo in doubt) [Compound A48, 3-Chlorobenzyl ((S)-1-(((S)-5-((4-chlorophenethyl)(methyl)amino)-1,5-dioxopentan-2-yl)amino)-3-cyclohexyl-1-oxopropan-2-yl)carbamate]
- IC50 [1]: 8.7 µM
- IC50 (SARS2 protease): 31 µM
- IC50 [2]: 63 µM

Compound: CN(C)C(=O)CC[C@@H](C=O)NC(=O)[C@H](CC1CCCCC1)NC(=O)OCc1cccc(Cl)c1 [Compound A6, 3-chlorobenzyl ((S)-3-cyclohexyl-1-(((S)-5-(dimethylamino)-1,5-dioxopentan-2-yl)amino)-1-oxopropan-2-yl)carbamate]
- IC50 [1]: 2 µM
- IC50 (SARS2 protease): > 200 µM
- IC50 [2]: 18.7 µM

Compound: CN1C(=O)CCC(NC(=O)[C@H](CC2CCCCC2)NC(=O)OCc2cccc(Cl)c2)C1O (stereo partly drawn) [Compound A2, 3-chlorobenzyl ((2S)-3-cyclohexyl-1-((2-hydroxy-1-methyl-6-oxopiperidin-3-yl)amino)-1-oxopropan-2-yl)carbamate]
- IC50 [1]: 169 µM
- IC50 (SARS2 protease): > 200 µM
- IC50 [2]: 127 µM
